Assay results as given in patent publication US10208074B2, “Pyrazole compounds and method for making and using the compounds” (Rigel Pharmaceuticals, Inc., priority 2015, dated 2019).
Structures can show the parent of a compound that is named as a salt. Where two headings read alike, the source gives them in different places.

Tests used:
IL-23 (p19/p40) = assay: IL23-p19 ELISA, Dendritic, LPS (compound screening using DC cells); type: cell-based, Human
Procedure: Compound Screening Using DC Cells
Human PBMC cells (400 million) obtained from the vendor were transferred into a T-175 flask containing 15 ml RPMI media (10% FBS) and incubate for 2 hours at 37° C. After 2 hours, the media including floating cells was aspirated out carefully and 12 ml of fresh RPMI media (10% FBS) containing GMCSF (100 ng/ml) and IL4 (20 ng/ml) was added, and the flask was kept in a 37° C. incubator for 7 days.
After 3 days, fresh GMCSF (100 ng/ml) and IL4 (20 ng/ml) were added to the flask and the incubation continued. After 7 days, the fully differentiated cells were harvested by spinning down (1200 rpm/5 min) and aspirating the media. The cells were suspended in fresh RPMI media (10% FBS) containing 50 ng/ml IFNγ (1000 U/ml) and then plated (50K/well in 100 μl) onto a white clear bottom 96 well plate and left in a 37° C. incubator for 24 hours.
After 24 hours incubation, 100 μl of RPMI media was added containing 2× concentrated test compound per well to the above cell-culture media (final concentration becomes 1×) and the plates were pre-incubated for 1 hour at 37° C. before stimulating with LPS.
After 1 hour compound pre-incubation, 10 piper well of 20× concentrated LPS solution in RPMI media was added to give a final concentration of 1 μg/ml. The mixture was shaken and incubated the plates at 37° C. for an additional 18 hours.
155 μl of the supernatant was harvested from each well carefully (without the tip touching the bottom of the well) and to the remaining 50 μl/well of the cell culture plate was added 50 μl of Cell Titer Glo reagent. The mixture was incubated for 1-2 minutes on a shaker and the plate was read for luminescence intensity to determine the compound cytotoxicity. The cell culture supernatant collected above was used to carry out IL23 ELISA (65 μl -Supernatant) and IL10 ELISA (90 μl—Supernatant) as described below.
Human IL-23 (p19/p40) ELISA Protocol (e-Biosciences)
To 10.5 ml PBS add 50 μl of anti-IL23 (p19) was added capture antibody (2.5 μg/ml). The mixture was mixed well and 100 μl of the coating solution was added to each well of the 96 well white plates from Pierce. The wells were covered and incubated overnight at 4° C.
The anti-IL23 (p19)-antibody-coated plates were washed 2× using TBST (use plate washer) and blocked using 200 μl of 0.5% Casein for 1.5-2 hours at room temperature with shaking.
The plates were washed 2× using TBST and the supernatant was transferred (65 μl/well) to the above pre-blocked/IL23(p19)-antibody-coated 96 well plate, and incubated at room temperature for 1.5 hours with shaking.
The plates were washed 4× using TBST (plate washer) and 100 μl/well detection antibody solution prepared from 2 μl of biotin labeled anti-IL-12 (p40/p70) antibody in 11 ml 1% BSA/PBS solution (1-5000 dilution) was added. The plates were incubated for 1 hour with shaking at Room temperature.
Again, the plates were washed 4× with TBST and 100 μl of HRP labeled Streptavidin (R&D Systems) solution (10 μl/10 ml 1% BSA solution) was added, and the plates were incubated at room temperature for another 45 minutes with shaking.
After 45 minutes, the plates were washed with TBST 4× and 100 ul/well Super Signal ELISA Pico Chemiluminescent Substrate from Pierce (3.5 ml A+3.5 ml B+3.5 ml MQ water) was added. The plates were shaken for 1-2 minutes then read on a plate reader.

IL-23p19 = assay: LPS induced IL23p19 in THP-1 cells (with IFNγ primed) assay; type: cell-based, Human
Method in brief: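 THP-1 cells primed ~18 h with IFNγ (50 ng/mL), pre-incubated 1 h with compound at 37 °C, then stimulated 18 h with LPS (1 ug/mL final). Supernatant IL-23p19 measured by sandwich ELISA with chemiluminescent read-out; EC50 from curve fitting. Toxicity checked on the remaining cells by Cell Titer Glo.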

[1] = Homo sapiens, 18 h, PBMC-derived DC cells, IFNγ primed, LPS 1 μg/ml, 18 hours, 10 pt, read-out: IL23-p19 ELISA, Dendritic, LPS, 10 pt, EC50
[2] = Homo sapiens, THP-1, 18 h, THP-1 cells, IFNγ primed, LPS 1 ug/mL, 18 hours, 10 pt, read-out: IL23-p19 ELISA, THP1-IFNy, LPS, 10 pt EC50
[3] = THP-1 cells, IFNγ primed, LPS 1 ug/mL, 18 hours, 10 pt, formate, read-out: IL23-p19 ELISA, THP1-IFNy, LPS, 10 pt EC50

SMILES	EC50 (IL-23 (p19/p40); [1]) [µM]	EC50 (IL-23p19; [2]) [µM]	also measured
COCCn1cc(NC(=O)c2ccc(-c3cnn(COP(=O)(O)O)c3)o2)c(-c2ccccn2)n1 [Compound I-14, sodium (4-(5-((1-(2-methoxyethyl)-3-(pyridin-2-yl)-1H-pyrazol-4-yl)carbamoyl)furan-2-yl)-1H-pyrazol-1-yl)methyl phosphate]			EC50 (IL-23 (p19/p40); Homo sapiens, 18 h, read-out: IL23-p19 ELISA, Dendritic, LPS, 10 pt, EC50 (μM)): 0.571 µM; EC50 (IL-23p19; Homo sapiens, THP-1, 18 h, read-out: IL23-p19 ELISA, THP1-IFNy, LPS, 10 pt EC50 (μM)): 1.25 µM
COCCn1cc(NC(=O)c2ccc(-c3cnn(COP(=O)(O)O)c3)o2)c(-c2ccccn2)n1 [Compound I-12, (4-(5-((1-(2-methoxyethyl)-3-(pyridin-2-yl)-1H-pyrazol-4-yl)carbamoyl)furan-2-yl)-1H-pyrazol-1-yl)methyl dihydrogen phosphate]	1.05	0.593	
O=C(Nc1cn(C2CCOCC2)nc1-c1nccs1)c1ccc(-c2cn[nH]c2)o1 [Compound I-60, 5-(1H-pyrazol-4-yl)-N-(1-(tetrahydro-2H-pyran-4-yl)-3-(thiazol-2-yl)-1H-pyrazol-4-yl)furan-2-carboxamide formate]			EC50 (IL-23 (p19/p40); PBMC-derived DC cells, IFNγ primed, LPS 1 μg/ml, 18 hours, 10 pt, formate, read-out: IL23-p19 ELISA, Dendritic, LPS, 10 pt, EC50): 0.0338 µM; EC50 (IL-23p19; [3]): 0.175 µM
CCOCCn1cc(NC(=O)c2csc(-c3c(C)n[nH]c3C)n2)c(-c2ccccn2)n1 [II-23, 2-(3,5-dimethyl-1H-pyrazol-4-yl)-N-(1-(2-ethoxyethyl)-3-(pyridin-2-yl)-1H-pyrazol-4-yl)thiazole-4-carboxamide, formic acid salt]	16.3	4.76	
CCOCCn1cc(NC(=O)c2ccc(-c3cnn(C)c3)o2)c(-c2ccccn2)n1 [Compound I-45, N-(1-(2-ethoxyethyl)-3-(pyridin-2-yl)-1H-pyrazol-4-yl)-5-(1-methyl-1H-pyrazol-4-yl)furan-2-carboxamide formate]	5.45	1.08	
O=C(Nc1cn(CC2CC(O)C2)nc1-c1ccccn1)c1csc(-c2cn[nH]c2)n1 (stereo not shown) [II-123, N-(1-(((1r,3r)-3-hydroxycyclobutyl)methyl)-3-(pyridin-2-yl)-1H-pyrazol-4-yl)-2-(1H-pyrazol-4-yl)thiazole-4-carboxamide]	0.149	0.0271	
COCCOCCn1cc(NC(=O)c2coc(-c3cc[nH]n3)n2)c(-c2ccccn2)n1 [III-6, N-(1-(2-(2-methoxyethoxy)ethyl)-3-(pyridin-2-yl)-1H-pyrazol-4-yl)-2-(1H-pyrazol-3-yl)oxazole-4-carboxamide]	0.217	0.238	
CCOCCn1cc(NC(=O)c2ccc(-c3c(C)n[nH]c3C)o2)c(-c2ccccn2)n1 [Compound I-58, 5-(3,5-dimethyl-1H-pyrazol-4-yl)-N-(1-(2-ethoxyethyl)-3-(pyridin-2-yl)-1H-pyrazol-4-yl)furan-2-carboxamide formate]	27.5	2.81	
COc1ccc(Cn2cc(-c3nc(C(=O)Nc4cn(CC(O)(C(F)(F)F)C(F)(F)F)nc4-c4ccccn4)cs3)cn2)cc1 [II-107, 2-(1-(4-methoxybenzyl)-1H-pyrazol-4-yl)-N-(3-(pyridin-2-yl)-1-(3,3,3-trifluoro-2-hydroxy-2-(trifluoromethyl)propyl)-1H-pyrazol-4-yl)thiazole-4-carboxamide]	2.31	1.5	
CCOCCn1cc(NC(=O)c2ccc(-c3c[nH]nc3C)o2)c(-c2ccccn2)n1 [Compound I-56, N-(1-(2-ethoxyethyl)-3-(pyridin-2-yl)-1H-pyrazol-4-yl)-5-(3-methyl-1H-pyrazol-4-yl)furan-2-carboxamide formate]	7.72	0.156	
O=C(Nc1cn(C(=O)N2CCOCC2)nc1-c1ccccn1)c1csc(-c2cn[nH]c2)n1 [II-131, N-(1-(morpholine-4-carbonyl)-3-(pyridin-2-yl)-1H-pyrazol-4-yl)-2-(1H-pyrazol-4-yl)thiazole-4-carboxamide formate]	9.36		EC50 (IL-23p19; [3]): 0.36 µM
O=C(Nc1cn(CCOCCF)nc1-c1ccccn1)c1csc(-c2cn[nH]c2)n1 [II-118, N-(1-(2-(2-fluoroethoxy)ethyl)-3-(pyridin-2-yl)-1H-pyrazol-4-yl)-2-(1H-pyrazol-4-yl)thiazole-4-carboxamide]	0.211	0.109	
CCO[C@H]1CC[C@H](n2cc(NC(=O)c3ccc(-c4cn[nH]c4)o3)c(-c3ccccn3)n2)CC1 [Compound I-130, N-(1-((1r,4r)-4-ethoxycyclohexyl)-3-(pyridin-2-yl)-1H-pyrazol-4-yl)-5-(1H-pyrazol-4-yl)furan-2-carboxamide formate]	0.023	0.0483	
O=C(Nc1cn([C@H]2CC[C@H](O)C2)nc1-c1ccccn1)c1csc(-c2cn[nH]c2)n1 (relative stereo) [II-151, N-(1-((trans)-3-hydroxycyclopentyl)-3-(pyridin-2-yl)-1H-pyrazol-4-yl)-2-(1H-pyrazol-4-yl)thiazole-4-carboxamide]	0.0622	0.0649	
CCO[C@H]1CC[C@H](n2cc(NC(=O)c3csc(-c4cn[nH]c4)n3)c(-c3ccccn3)n2)CC1 [II-145, N-(1-((trans)-4-ethoxycyclohexyl)-3-(pyridin-2-yl)-1H-pyrazol-4-yl)-2-(1H-pyrazol-4-yl)thiazole-4-carboxamide]	0.0784	0.066	
CCO[C@H]1C[C@@H](n2cc(NC(=O)c3csc(-c4cn[nH]c4)n3)c(C(N)=O)n2)C1 [II-70, N-(3-carbamoyl-1-((1s,3s)-3-ethoxycyclobutyl)-1H-pyrazol-4-yl)-2-(1H-pyrazol-4-yl)thiazole-4-carboxamide]	1.02	1.86	
COC1CC(n2cc(NC(=O)c3csc(-c4cn[nH]c4)n3)c(-c3ccccn3)n2)C1 (stereo not shown) [II-57, N-{1-(3-Methoxycyclobutyl)-3-(pyridine-2-yl)-1H-pyrazol-4-yl}-2-(1H-pyrazol-4-yl)thiazole-4-carboxamide]	0.0854	0.0418	
COCCn1cc(NC(=O)c2ccc(-c3c[nH]nc3C)o2)c(-c2ccccn2)n1 [Compound I-9, N-(1-(2-methoxyethyl)-3-(pyridin-2-yl)-1H-pyrazol-4-yl)-5-(3-methyl-1H-pyrazol-4-yl)furan-2-carboxamide]			EC50 (IL-23 (p19/p40); PBMC-derived DC cells, IFNγ primed, LPS 1 μg/ml, 18 hours, 10 pt, read-out: IL23-p19 ELISA, Dendritic, LPS, 10 pt, EC50): 0.309 µM; EC50 (IL-23p19; THP-1 cells, IFNγ primed, LPS 1 ug/mL, 18 hours, 10 pt, read-out: IL23-p19 ELISA, THP1-IFNy, LPS, 10 pt EC50): 0.281 µM
CCO[C@H]1C[C@H](n2cc(NC(=O)c3csc(-c4cn[nH]c4)n3)c(-c3ccccn3)n2)C1 [II-12, N-(1-((1,3-trans)-3-ethoxycyclobutyl)-3-(pyridin-2-yl)-1H-pyrazol-4-yl)-2-(1H-pyrazol-4-yl)thiazole-4-carboxamide]	0.0616	0.135	
CN1CCN(CCn2cc(NC(=O)c3ccc(-c4cn[nH]c4)o3)c(-c3ccccn3)n2)CC1 [Compound I-112, N-(1-(2-(4-methylpiperazin-1-yl)ethyl)-3-(pyridin-2-yl)-1H-pyrazol-4-yl)-5-(1H-pyrazol-4-yl)furan-2-carboxamide]	0.0407	0.0428	
